How the values were obtained:
[1] = target: Proto-oncogene tyrosine-protein kinase ROS (Homo sapiens) (UniProt P08922); test: Selectivity interaction (KinomeScan (DiscoverX)) EUB0001079a ROS1; settings: at 1 µM
[2] = target: 5'-AMP-activated protein kinase catalytic subunit alpha-1 (Homo sapiens, UniProt Q13131); test: Selectivity interaction (Kinase panel (KiNativ target engagement assay in Jurkat cells)) EUB0001635a PRKAA1; type: cell-based; settings: Selectivity number of off-targets 0.0, Selectivity number of targets 233.0, Source Knowledge https://www.sciencedirect.com/science/article/pii/S2451945619300674?via%3Dihub, at 1 µM
Sequence of 5'-AMP-activated protein kinase catalytic subunit alpha-1 (Q13131 whole entry, looked up): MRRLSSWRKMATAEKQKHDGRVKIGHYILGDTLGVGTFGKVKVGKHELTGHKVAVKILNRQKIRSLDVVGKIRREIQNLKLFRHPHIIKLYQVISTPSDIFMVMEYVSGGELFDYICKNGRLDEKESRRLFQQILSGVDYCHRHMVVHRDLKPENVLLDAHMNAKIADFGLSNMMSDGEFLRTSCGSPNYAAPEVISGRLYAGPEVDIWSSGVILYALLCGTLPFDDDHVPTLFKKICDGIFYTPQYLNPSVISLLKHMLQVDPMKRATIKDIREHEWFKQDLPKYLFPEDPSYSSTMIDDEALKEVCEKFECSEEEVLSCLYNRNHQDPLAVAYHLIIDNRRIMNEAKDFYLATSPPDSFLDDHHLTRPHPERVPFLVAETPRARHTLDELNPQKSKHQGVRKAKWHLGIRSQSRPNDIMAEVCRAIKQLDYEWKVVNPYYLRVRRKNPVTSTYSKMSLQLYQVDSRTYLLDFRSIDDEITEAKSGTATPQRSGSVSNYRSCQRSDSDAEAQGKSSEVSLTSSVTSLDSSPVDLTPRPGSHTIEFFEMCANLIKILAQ

[3] = target: Serine/threonine-protein kinase B-raf (Homo sapiens, UniProt P15056, V600E); test: Selectivity interaction (Radiometric kinase assay (using 10 uM ATP)) EUB0000601a BRAF
Sequence of Serine/threonine-protein kinase B-raf (P15056 2-766 V600E limits assumed): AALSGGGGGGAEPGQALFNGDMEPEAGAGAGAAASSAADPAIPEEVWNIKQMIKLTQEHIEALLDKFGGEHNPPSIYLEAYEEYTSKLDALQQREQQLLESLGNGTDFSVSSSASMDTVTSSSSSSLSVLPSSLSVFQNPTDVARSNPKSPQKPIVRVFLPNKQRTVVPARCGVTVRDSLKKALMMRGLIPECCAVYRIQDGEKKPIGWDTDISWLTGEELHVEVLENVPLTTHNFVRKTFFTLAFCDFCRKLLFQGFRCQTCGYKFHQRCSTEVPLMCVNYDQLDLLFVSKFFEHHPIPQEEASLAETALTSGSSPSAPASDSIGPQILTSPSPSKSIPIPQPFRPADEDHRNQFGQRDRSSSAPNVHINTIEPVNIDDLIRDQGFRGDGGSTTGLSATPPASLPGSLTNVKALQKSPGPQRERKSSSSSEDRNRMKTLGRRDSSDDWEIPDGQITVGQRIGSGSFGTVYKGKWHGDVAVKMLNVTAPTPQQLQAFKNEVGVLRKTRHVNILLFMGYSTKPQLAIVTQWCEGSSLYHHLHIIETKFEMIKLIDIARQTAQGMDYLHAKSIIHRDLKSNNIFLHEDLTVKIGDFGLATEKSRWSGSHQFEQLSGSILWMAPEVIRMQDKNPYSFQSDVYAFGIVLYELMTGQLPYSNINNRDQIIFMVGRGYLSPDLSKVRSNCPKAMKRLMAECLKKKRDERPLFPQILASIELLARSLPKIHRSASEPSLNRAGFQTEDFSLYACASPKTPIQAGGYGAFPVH

[4] = target: T1, Serine/threonine-protein kinase D2 (Homo sapiens) (UniProt Q9BZL6); test: Selectivity interaction (ActivX KiNativ screen (kinase selectivity in THP-1 cell lysates)) EUB0000639a PRKD2; type: subcellular; settings: lysate, at 1 µM
T1 sequence (whole entry): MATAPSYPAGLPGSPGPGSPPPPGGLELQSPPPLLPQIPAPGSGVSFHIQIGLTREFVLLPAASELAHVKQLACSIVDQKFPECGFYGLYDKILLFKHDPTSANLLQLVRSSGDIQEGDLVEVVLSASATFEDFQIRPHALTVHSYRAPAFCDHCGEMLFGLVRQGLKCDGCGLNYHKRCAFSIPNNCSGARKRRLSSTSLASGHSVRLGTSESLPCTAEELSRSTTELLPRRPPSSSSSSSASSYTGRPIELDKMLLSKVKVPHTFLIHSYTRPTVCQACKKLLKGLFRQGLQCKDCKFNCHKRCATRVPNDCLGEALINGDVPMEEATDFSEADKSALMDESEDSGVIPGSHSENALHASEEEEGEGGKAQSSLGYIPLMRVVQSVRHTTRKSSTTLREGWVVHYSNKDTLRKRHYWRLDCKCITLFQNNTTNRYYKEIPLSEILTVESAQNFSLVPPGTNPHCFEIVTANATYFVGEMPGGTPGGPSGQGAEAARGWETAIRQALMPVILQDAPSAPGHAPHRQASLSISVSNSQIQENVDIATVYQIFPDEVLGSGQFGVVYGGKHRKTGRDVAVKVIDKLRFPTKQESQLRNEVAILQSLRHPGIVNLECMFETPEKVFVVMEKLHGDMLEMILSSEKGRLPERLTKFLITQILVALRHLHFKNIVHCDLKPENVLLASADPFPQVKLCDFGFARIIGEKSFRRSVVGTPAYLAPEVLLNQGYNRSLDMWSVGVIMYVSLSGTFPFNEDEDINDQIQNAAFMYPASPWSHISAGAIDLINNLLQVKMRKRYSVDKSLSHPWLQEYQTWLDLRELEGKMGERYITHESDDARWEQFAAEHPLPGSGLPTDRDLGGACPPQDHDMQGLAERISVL

[5] = target: Ribosomal protein S6 kinase alpha-1 (Homo sapiens, UniProt Q15418); test: Selectivity interaction (ActivX KiNativ screen (kinase selectivity in THP-1 cell lysates)) EUB0000639a RPS6KA1; type: subcellular; settings: lysate, at 0.04 µM
Sequence of Ribosomal protein S6 kinase alpha-1 (Q15418 whole entry): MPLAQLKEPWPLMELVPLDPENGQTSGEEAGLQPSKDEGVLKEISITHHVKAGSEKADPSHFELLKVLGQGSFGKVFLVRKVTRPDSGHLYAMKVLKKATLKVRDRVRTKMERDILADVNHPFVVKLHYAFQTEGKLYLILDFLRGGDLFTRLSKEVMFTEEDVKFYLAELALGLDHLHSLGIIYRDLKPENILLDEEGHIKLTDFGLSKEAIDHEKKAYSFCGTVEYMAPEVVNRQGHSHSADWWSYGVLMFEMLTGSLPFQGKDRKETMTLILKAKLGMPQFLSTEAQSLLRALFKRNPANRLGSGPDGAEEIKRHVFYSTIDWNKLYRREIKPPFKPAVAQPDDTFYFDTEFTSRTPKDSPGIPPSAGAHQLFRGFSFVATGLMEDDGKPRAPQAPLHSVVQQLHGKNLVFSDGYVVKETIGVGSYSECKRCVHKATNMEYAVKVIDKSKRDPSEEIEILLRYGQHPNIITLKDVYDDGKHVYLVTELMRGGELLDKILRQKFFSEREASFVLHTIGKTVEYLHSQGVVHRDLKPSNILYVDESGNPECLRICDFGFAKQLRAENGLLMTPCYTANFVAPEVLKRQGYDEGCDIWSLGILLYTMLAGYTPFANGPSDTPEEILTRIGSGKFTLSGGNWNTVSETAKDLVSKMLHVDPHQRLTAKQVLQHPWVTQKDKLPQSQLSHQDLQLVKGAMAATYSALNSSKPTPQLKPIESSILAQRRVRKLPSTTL

[6] = target: T2, Cyclin-dependent kinase-like 2 (Homo sapiens) (UniProt Q92772); test: Selectivity interaction (Ambit KINOMEscan and KiNATiv profiling in Jurkat cells) EUB0000090b CDKL2; type: cell-based; settings: at 1 µM
T2 sequence (whole entry): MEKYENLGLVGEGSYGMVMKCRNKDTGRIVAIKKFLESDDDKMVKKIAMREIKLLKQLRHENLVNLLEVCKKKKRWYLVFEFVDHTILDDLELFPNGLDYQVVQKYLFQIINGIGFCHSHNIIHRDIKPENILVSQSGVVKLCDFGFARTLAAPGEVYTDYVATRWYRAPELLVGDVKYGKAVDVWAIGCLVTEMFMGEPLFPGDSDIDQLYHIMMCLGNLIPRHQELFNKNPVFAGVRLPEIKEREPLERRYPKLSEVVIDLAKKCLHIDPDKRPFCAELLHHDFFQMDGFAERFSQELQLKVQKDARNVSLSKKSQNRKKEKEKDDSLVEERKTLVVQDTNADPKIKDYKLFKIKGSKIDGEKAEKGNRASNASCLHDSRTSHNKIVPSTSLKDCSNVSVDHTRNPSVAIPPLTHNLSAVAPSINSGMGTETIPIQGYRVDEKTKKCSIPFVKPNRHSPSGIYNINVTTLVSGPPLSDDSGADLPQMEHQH

[7] = target: Serine/threonine-protein kinase ATR (Homo sapiens) (UniProt Q13535); test: Selectivity interaction (ActivX KiNativ screen (ex vivo kinase selectivity in human PBMCs)) EUB0001619a ATR; type: cell-based; settings: PBMC, at 1 µM
[8] = target: Transient receptor potential cation channel subfamily M member 6 (Homo sapiens) (UniProt Q9BX84); test: Selectivity interaction (KinomeScan (DiscoverX)) EUB0001619a TRPM6; settings: at 1 µM

Sequence of Proto-oncogene tyrosine-protein kinase ROS (Homo sapiens) (P08922 whole entry): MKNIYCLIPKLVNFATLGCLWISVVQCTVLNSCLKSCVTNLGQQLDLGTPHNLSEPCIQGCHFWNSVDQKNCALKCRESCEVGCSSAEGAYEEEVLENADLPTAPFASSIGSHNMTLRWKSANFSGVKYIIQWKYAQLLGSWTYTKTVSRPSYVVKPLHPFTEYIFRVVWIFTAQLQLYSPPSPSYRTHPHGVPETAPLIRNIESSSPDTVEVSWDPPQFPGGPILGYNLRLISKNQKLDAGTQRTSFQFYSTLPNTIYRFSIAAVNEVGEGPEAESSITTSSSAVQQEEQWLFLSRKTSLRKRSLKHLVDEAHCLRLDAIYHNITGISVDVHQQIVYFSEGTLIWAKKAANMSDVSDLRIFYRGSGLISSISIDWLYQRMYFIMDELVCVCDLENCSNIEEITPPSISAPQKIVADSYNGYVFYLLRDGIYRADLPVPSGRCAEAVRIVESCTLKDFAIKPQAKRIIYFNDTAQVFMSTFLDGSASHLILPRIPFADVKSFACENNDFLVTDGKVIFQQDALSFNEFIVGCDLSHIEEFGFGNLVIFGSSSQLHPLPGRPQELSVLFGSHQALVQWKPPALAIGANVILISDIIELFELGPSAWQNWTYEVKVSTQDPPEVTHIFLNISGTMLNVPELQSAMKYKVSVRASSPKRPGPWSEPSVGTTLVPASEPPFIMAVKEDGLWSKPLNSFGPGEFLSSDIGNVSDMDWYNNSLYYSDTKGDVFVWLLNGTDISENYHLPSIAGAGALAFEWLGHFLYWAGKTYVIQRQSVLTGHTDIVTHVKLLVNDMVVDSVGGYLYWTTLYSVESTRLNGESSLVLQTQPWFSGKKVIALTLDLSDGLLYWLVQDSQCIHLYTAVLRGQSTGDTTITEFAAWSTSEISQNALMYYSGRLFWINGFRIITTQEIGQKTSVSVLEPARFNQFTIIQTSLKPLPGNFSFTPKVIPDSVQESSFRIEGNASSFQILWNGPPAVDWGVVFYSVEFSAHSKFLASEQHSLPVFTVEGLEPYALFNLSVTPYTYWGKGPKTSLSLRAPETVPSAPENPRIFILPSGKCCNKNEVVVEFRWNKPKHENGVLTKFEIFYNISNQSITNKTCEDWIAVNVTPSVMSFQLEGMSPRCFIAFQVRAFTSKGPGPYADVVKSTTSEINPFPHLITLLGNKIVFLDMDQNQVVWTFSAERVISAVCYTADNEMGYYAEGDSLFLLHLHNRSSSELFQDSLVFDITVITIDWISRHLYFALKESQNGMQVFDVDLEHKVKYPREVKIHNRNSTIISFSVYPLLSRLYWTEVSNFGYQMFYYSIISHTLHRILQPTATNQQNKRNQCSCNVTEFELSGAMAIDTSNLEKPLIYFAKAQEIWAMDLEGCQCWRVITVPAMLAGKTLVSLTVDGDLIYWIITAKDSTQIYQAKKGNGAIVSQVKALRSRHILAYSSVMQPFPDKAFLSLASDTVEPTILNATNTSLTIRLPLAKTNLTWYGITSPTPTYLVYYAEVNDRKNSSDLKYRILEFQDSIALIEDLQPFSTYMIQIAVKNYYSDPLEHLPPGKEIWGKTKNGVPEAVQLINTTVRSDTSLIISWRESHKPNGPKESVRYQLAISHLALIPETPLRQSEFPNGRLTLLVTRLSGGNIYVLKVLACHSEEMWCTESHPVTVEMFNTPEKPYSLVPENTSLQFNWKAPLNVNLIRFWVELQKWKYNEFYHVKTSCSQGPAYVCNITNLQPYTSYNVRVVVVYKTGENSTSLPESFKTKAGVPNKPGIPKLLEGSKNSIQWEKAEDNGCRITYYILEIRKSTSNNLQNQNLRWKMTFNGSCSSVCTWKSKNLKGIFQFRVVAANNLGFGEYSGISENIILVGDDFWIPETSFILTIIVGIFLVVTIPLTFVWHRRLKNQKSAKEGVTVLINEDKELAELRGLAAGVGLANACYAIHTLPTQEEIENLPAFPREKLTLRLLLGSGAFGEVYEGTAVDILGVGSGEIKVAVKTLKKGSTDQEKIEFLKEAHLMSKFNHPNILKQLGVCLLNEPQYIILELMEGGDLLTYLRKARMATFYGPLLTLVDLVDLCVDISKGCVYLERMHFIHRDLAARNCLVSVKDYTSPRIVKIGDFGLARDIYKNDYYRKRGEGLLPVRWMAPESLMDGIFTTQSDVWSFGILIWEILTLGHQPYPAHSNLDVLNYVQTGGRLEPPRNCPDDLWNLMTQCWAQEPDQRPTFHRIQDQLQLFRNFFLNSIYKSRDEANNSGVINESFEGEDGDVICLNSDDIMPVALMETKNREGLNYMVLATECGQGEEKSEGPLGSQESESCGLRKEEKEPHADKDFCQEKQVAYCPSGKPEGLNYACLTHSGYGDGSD

SMILES: Nc1cnc(N2CCc3cc(S(=O)(=O)Nc4c(F)cc(Cl)cc4F)cc(N4CCCC4=O)c32)nc1 [TP-020n]
- % of control [1]: 99%

SMILES: C=CC(=O)Nc1ccc(C(=O)Nc2[nH]nc3c2CN(C(=O)N[C@H](CN(C)C)c2ccccc2)C3(C)C)cc1
- % of engagement [2]: 54.4%

SMILES: CCc1cc(Nc2nccc(-c3c(-c4ccc(OC)c(C(=O)Nc5c(F)cccc5F)c4)nc4ccccn34)n2)c(OC)cc1N1CCC(N2CCN(S(C)(=O)=O)CC2)CC1
- IC50 [3]: > 2000 nM

SMILES: CC[C@@H]1[C@H](F)C(=O)N[C@@H]1COc1nccc2cc(C(N)=O)c(OC)cc12 [ZIMLOVISERTIB]
- % of inhibition [4]: 8%
- % of inhibition [5]: 12.4%

SMILES: CN(C)C/C=C/C(=O)Nc1ccc(C(=O)N2CCCC(Nc3ncc(Cl)c(-c4c[nH]c5ccccc45)n3)C2)cc1 (stereo not drawn)
- % of control [6]: 75%

SMILES: N#Cc1cccc(-c2c[nH]c3ncnc(N4CCOCC4)c23)c1
- % of inhibition [7]: 25%
- % of control [8]: 100%

— ChEMBL document CHEMBL5465560, “Selectivity Literature for EUbOPEN Chemogenomic Library” (2024)
